{"source": "ChEMBL document CHEMBL2203036", "about": "“Discovery of 1-[2-(2,4-dimethylphenylsulfanyl)phenyl]piperazine (Lu AA21004): a novel multimodal compound for the treatment of major depressive disorder” (J Med Chem, 2011)", "target": "5-hydroxytryptamine receptor 2C (Homo sapiens) (UniProt P28335)", "sequence (P28335 whole entry, looked up)": "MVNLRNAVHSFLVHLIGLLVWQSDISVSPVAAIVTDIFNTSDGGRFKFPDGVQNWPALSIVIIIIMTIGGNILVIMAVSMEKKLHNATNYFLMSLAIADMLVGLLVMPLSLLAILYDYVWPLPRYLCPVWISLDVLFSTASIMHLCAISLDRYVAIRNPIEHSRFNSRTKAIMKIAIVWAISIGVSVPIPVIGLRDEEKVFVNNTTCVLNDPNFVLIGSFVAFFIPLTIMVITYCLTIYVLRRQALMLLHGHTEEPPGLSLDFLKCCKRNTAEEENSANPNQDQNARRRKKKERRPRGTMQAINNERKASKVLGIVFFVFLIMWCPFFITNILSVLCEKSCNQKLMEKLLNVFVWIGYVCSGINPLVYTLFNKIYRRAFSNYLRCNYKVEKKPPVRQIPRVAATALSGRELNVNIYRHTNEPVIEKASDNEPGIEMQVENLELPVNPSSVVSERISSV", "experiment": "Binding affinity to human 5HT2C receptor", "data": [{"smiles": "Cc1ccc(Sc2ccccc2N2CCNCC2)c(C)c1.Cl", "values": [{"measurement": "Ki", "result": 180, "unit": "nM"}]}]}
